According to patent publication US20050049293A1, “Use of cholinesterase antagonists to treat insulin resistance” (priority 2002, published 2005):
Like-named read-outs stand apart in the source and are kept apart here.

How the values were obtained:
[1] = system: hepatic muscarinic receptors (insulin resistance); details: cats, cited from earlier work
[2] = system: atropine-induced HISS-dependent insulin resistance (HDIR); experiment: Rapid insulin sensitivity test (RIST) in atropine model of 75% HDIR, reversal with neostigmine (Example 1); details: neostigmine 1 μg/kg/min ipv
[3] = system: HISS-dependent insulin resistance in sucrose-fed rats; experiment: RIST during neostigmine infusion in liquid sucrose-fed rats (Example 3); format: in vivo; details: portal vein infusion
Excerpt: Since both forms of diet produced the same degree of HDIR, the model of sucrose feeding using the liquid diet was used to determine whether this HDIR was reversible with the anticholinesterase agent, neostigmine.
The model of insulin resistance produced by the 35% liquid sucrose diet (in addition to regular rodent food pellets and normal drinking water) was identical to the protocol described above for the assessment of HDIR in sucrose-fed rats.
The surgical preparation was identical to that described above for sucrose-fed rats tested for HDIR. In addition, a laparotomy and portal vein cannulation were carried out. […] Following a laporotomy, the portal vein was cannulated.
After conducting a control RIST, neostigmine was infused into the portal vein for at least […] before a second RIST was conducted to determine if this agent could reverse the insulin resistance. The doses of neostigmine were 1 and 2 μg/kg/min.

[4] = control RIST index 94.8±11.2 mg/kg

## COc1ccccc1CNCCCCCCNCCCCCCCCNCCCCCCNCc1ccccc1OC [methoctramine]
[1]; M2 selective antagonist
  Dose achieving a similar degree of insulin resistance: 10^−6 μmol/kg

## CN(C)C(=O)Oc1cccc([N+](C)(C)C)c1 [neostigmine]
[2]; after atropine-induced 75% HDIR (blocked state 90.5±[…])
  RIST index during constant infusion of neostigmine: 152.6 ± 15.2 mg/kg
[2]; FIG. 1
  Reversal of HDIR produced by atropine: able to reverse the HDIR
[3]; FIG. 3
  Reversal of insulin resistance at 1 μg/kg/min: did not produce a reversal of insulin resistance
[3]; [4]
  RIST index during neostigmine 1 μg/kg/min: 80.9 ± 27.3 mg/kg
  RIST index during neostigmine 2 μg/kg/min: 178.0 ± 17.7 mg/kg

## CN1CCN(CC(=O)N2c3ccccc3C(=O)Nc3cccnc32)CC1 [pirenzepine]
[1]; M1 muscarinic selective antagonist
  Dose achieving a similar degree of insulin resistance: 10^−7 mmol/kg
